Laboratory results as given in ChEMBL document CHEMBL3112430, “Biological evaluation of new antitumor taxoids: alteration of substitution at the C-7 and C-10 of docetaxel” (2014).
Active and inactive are the calls of the source. The rule behind the calls is not given here.

How the values were obtained:
Format in all cases: functional
[1] = Growth inhibition of human PANC1 cells by MTT assay; settings: PANC-1
[2] = Growth inhibition of human BGC823 cells by MTT assay; settings: BGC-823
K562 = test: Growth inhibition of human K562 cells by MTT assay
[3] = Growth inhibition of human SGC7901 cells by MTT assay; settings: SGC-7901
[4] = Growth inhibition of human U937 cells by MTT assay; settings: U-937
MCF7 = test: Growth inhibition of human MCF7 cells by MTT assay
DU-145 = test: Growth inhibition of human DU145 cells by MTT assay
A-431 = test: Growth inhibition of human A431 cells by MTT assay
HeLa = test: Growth inhibition of human HeLa cells by MTT assay
HL-60 = test: Growth inhibition of human HL60 cells by MTT assay
A549 [5] = test: Growth inhibition of human A549 cells by MTT assay
[6] = (§1) Growth inhibition of human HT1080 cells by MTT assay; settings: HT-1080
[7] = Growth inhibition of human Bel7402 cells by MTT assay; settings: Bel-7402
Huh-7 = test: Growth inhibition of human HuH7 cells by MTT assay
HT-1080 = test: as §1
MOLT-4 = test: Growth inhibition of human MOLT4 cells by MTT assay
A549 [8] = test: Ratio of taxol GI50 to compound GI50 for human A549 cells

Row | GI50 (K562) | GI50 (MCF7) [nM] | GI50 (DU-145) [nM] | GI50 (A-431) [nM] | GI50 (HeLa) [nM] | GI50 (HL-60) [nM] | GI50 (A549 [5]) [nM] | GI50 (Huh-7) [nM] | GI50 (HT-1080) | GI50 (MOLT-4) [nM] | SMILES | GI50 [1] [nM] | GI50 [2] [nM] | GI50 [3] [nM] | GI50 [4] [nM] | GI50 [6] [nM] | GI50 [7] [nM] | RatioGI50 (A549 [8])
1 | 4.19 nM | 1.19 | 1.43 | 1.48 | 1.8 | 4.74 | 1.48 | – | – | – | CO[C@H]1C(=O)[C@]2(C)[C@@H](OC)C[C@H]3OC[C@@]3(OC(C)=O)[C@H]2[C@H](OC(=O)c2ccccc2)[C@]2(O)C[C@H](OC(=O)[C@H](O)[C@@H](NC(=O)OC(C)(C)C)c3ccccc3)C(C)=C1C2(C)C [CABAZITAXEL] | 1.28 | 467 | 0.355 | 0.539 | 1.41 | – | –
2 | inactive | 615 | 2.09 | 275 | 1.24 | 1230 | 563 | 257 | inactive | – | COCO[C@H]1C(=O)[C@]2(C)[C@@H](OCOC)C[C@H]3OC[C@@]3(OC(C)=O)[C@H]2[C@H](OC(=O)c2ccccc2)[C@]2(O)C[C@H](OC(=O)[C@H](O)[C@@H](NC(=O)OC(C)(C)C)c3ccccc3)C(C)=C1C2(C)C | 1.89 | 80.5 | 966 | 6.15 | – | 661 | –
3 | 7.01 nM | 1.29 | 5.57 | 2.35 | 3.21 | – | 18.7 | 207 | – | 2.23 | CC(=O)O[C@H]1C(=O)[C@@]2(C)[C@H]([C@H](OC(=O)c3ccccc3)[C@]3(O)C[C@H](OC(=O)[C@H](O)[C@@H](NC(=O)c4ccccc4)c4ccccc4)C(C)=C1C3(C)C)[C@]1(OC(C)=O)CO[C@@H]1C[C@@H]2O [PACLITAXEL] | 2.41 | 3.6 | 3.09 | 2.39 | 3.89 | 1.79 | –
4 | 483 nM | 1.19 | 3.69 | 2.27 | 2.53 | 63.7 | 1.94 | 87.5 | – | 268 | CCOCCO[C@H]1C(=O)[C@]2(C)[C@@H](OCCOCC)C[C@H]3OC[C@@]3(OC(C)=O)[C@H]2[C@H](OC(=O)c2ccccc2)[C@]2(O)C[C@H](OC(=O)[C@H](O)[C@@H](NC(=O)OC(C)(C)C)c3ccccc3)C(C)=C1C2(C)C | 150 | 816 | 2.27 | 1.95 | 2.83 | 1.56 | 9
5 | 936 nM | 345 | 982 | 6.73 | 407 | 57.9 | 3.1 | 227 | – | 749 | COCCO[C@H]1C(=O)[C@]2(C)[C@@H](OCCOC)C[C@H]3OC[C@@]3(OC(C)=O)[C@H]2[C@H](OC(=O)c2ccccc2)[C@]2(O)C[C@H](OC(=O)[C@H](O)[C@@H](NC(=O)OC(C)(C)C)c3ccccc3)C(C)=C1C2(C)C | 295 | 2 | 68.2 | 38.8 | 480 | 57.3 | –
6 | 554 nM | 130 | 65.1 | 1.25 | 225 | 376 | 159 | 104 | – | 263 | CC(=O)O[C@@]12CO[C@@H]1C[C@H](OC(=O)C(C)(CO)CO)[C@@]1(C)C(=O)[C@H](OC(=O)C(C)(CO)CO)C3=C(C)[C@@H](OC(=O)[C@H](O)[C@@H](NC(=O)OC(C)(C)C)c4ccccc4)C[C@@](O)([C@@H](OC(=O)c4ccccc4)[C@H]21)C3(C)C | 170 | 984 | 558 | 198 | 166 | 11.9 | –
7 | 470 nM | 7.41 | 413 | 38.5 | 6.65 | 118 | 6.76 | 113 | – | – | CC(=O)O[C@@]12CO[C@@H]1C[C@H](OCCO)[C@@]1(C)C(=O)[C@H](OCCO)C3=C(C)[C@@H](OC(=O)[C@H](O)[C@@H](NC(=O)OC(C)(C)C)c4ccccc4)C[C@@](O)([C@@H](OC(=O)c4ccccc4)[C@H]21)C3(C)C | 296 | 128 | 92.5 | 7.41 | 472 | 56 | –
